Like-named read-outs stand apart in the source and are kept apart here.

Data set [1] concerns the target T1, CB2 receptor (RBL-2H3 cell membranes) (Rattus norvegicus, UniProt Q9QZN9).
T1 construct: Preparation of Plasmatic Membranes of RBL-2H3 Cells; endogenous in cells; host or cells: RBL-2H3 (rat basophilic leukemia) cell membranes
T1 sequence (Q9QZN9 1-360): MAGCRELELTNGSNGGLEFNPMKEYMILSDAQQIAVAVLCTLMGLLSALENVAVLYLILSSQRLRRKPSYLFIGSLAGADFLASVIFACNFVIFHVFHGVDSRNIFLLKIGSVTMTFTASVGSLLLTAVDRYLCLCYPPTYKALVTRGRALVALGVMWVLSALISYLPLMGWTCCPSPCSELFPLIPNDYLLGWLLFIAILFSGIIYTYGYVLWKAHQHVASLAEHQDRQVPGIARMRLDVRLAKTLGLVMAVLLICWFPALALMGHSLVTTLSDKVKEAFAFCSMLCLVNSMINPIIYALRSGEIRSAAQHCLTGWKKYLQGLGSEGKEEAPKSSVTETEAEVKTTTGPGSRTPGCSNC
The experiment in a line: Competitive displacement of 3H-WIN 55,212-2 binding to RBL-2H3 cell membranes. Particulars: for inhibition at 10 µM: read-out: % Displacement. As to the method:
RBL-2H3 cells (100×10^6), frozen at -80° C., were thawed with 4 ml of Tris-HCl buffer solution 50 mM (pH 7.4), added with 0.25% w/v of Tripsin inhibitor, TYPE II-S: SOY BEAN® (distributed by Sigma). The cells were resuspended in the buffer and homogenized. The homogenate was centrifuged at 1500×g at 4° C. for 10 min. The supernatant obtained was collected and the precipitate was resuspended in 4 ml of the previous buffer. The resuspended precipitate was homogenized and centrifuged again at 1500×g at 4° C. for 5-10 min. The resulting supernatant was combined to the supernatant previously obtained and centrifuged at 5000×g for 10 min. After centrifugation, the supernatant was collected and further centrifuged at 40,000×g at 4° C. for 30 min. The resulting precipitate was resuspended in 0.5 ml of the buffer solution described above, with addition of 1% Bovine Serum Albumin fatty acid free. The obtained suspension was centrifuged at 40,000×g at 4° C. for 30 min. The resulting precipitate was collected and resuspended in buffer solution containing 50 mM Tris HCl, 1 mM Tris-EDTA, 3 mM MgCl2, pH 7.4, in order to obtain a proteic concentration of 1 μg/μl approx. This preparation may be used fresh, or frozen at -80° C. and utilized within few days.
Non-radioactive WIN 55,212-2 (1 μM) was used to inhibit specific binding. […] The competitors were added to the binding mixture prior to the labelled ligand. In both cases, for an evaluation of the reference specific binding, ethanol and DMSO were added at the same final concentration to the total binding and to the aspecific one, also in the absence of competitors.
WIN 55,212-2 was used at a concentration of 3 μM, whereas the other compounds were used at a concentration of 10 μM.
Incubation was carried out in the presence of 1% DMSO. The values of Inhibitory Concentration 50 (IC50) are expressed as means ± SEM, after the number of experiments reported hereinbelow.
For orientation: Loss of bound radioactivity is the signal in a displacement assay; it reports binding, not function.

In the next data set the test system is RBL-2H3 cells. Briefly: Inhibition of 3H-serotonin release induced by ADNP/DNP-HSA immunogenic stimulation in RBL-2H3 cells. Format: cell-based, rat. Conditions: for inhibition at 100 µM: 100 μM (Table 8); for EC50: 15 minutes release period (Table 9); for activity at 100 µM: 0.1% DMSO and 0.1% ethanol (Table 3).
Data set [2] in a line: Solubility in water and organic solvents. Particulars: for solubility: organic solvent or mixture; for solubility in water: result in words.
Setting [3] is: Rattus norvegicus, RBL-2H3, read-out: 3H-serotonin release inhibition %, 0.2% DMSO.
[4] abbreviates: Rattus norvegicus, RBL-2H3, read-out: 3H-serotonin release inhibition %, 1% DMSO.
[5] abbreviates: Rattus norvegicus, RBL-2H3, read-out: EC50, concentration inhibiting by 50% the net release of 3H serotonin, 0.2% DMSO.
Where [6] appears, read: Rattus norvegicus, RBL-2H3, read-out: EC50, concentration inhibiting by 50% the net release of 3H serotonin, 1% DMSO.
Where [7] appears, read: Rattus norvegicus, RBL-2H3, 0.25 h, read-out: 3H-serotonin net release (%).

Turning to `CCCCCCCCCCCC(=O)NCCO` [Example 22, N-(2-hydroxyethyl)-lauroylamide], the IC50 in data set [1] (RBL-2H3 cell membranes, 1% DMSO, means ± SEM) was found to be 18.1 nM. The inhibition at 10 µM in data set [1] was determined as 72%. The inhibition at 100 µM in the data set with RBL-2H3 cells (setting [3]) came to 100%; with RBL-2H3 cells (setting [4]), 91%. Besides, the results for the EC50 in the data set with RBL-2H3 cells (setting [5]) and in the data set with RBL-2H3 cells (setting [6]) were 35 µM and 11 µM, respectively. Also, the solubility in data set [2] (chloroform) and in data set [2] (dmso) was > 10000 µg/mL each time. Besides, the solubility in water entry in data set [2] was “scarcely soluble”.

For `CCCCCCC(C)(C)c1cc(O)c2c(c1)OC(C)(C)[C@@H]1CCC(=O)C[C@@H]21` (relative stereo) [Nabilone, 3-(1,1-dimethylheptyl)-6,6a,7,8,10,10a-hexahydro-1-hydroxy-6,6-dimethyl-9H-dibenzo-[b,d]-pyran-9-one, reference compound], the IC50 in data set [1] was determined as 2.6 ± 1.4 nM; in the data set on RBL-2H3 cells (Rattus norvegicus, RBL-2H3, 0.25 h, read-out: ED50), 2.8 µM; with RBL-2H3 cells (read-out: ED50, inhibition of 3H-serotonin release, + anandamide (12.5 μM) (Table 5), 15 min), 5 µM. Further, in data set [1], the inhibition at 10 µM was found to be 100%. The “binding to the peripheral receptor” value in data set [1] (result in words) is “able to bind to the receptor and to compete”. The “3H-serotonin net release inhibition (%)” value in the data set on RBL-2H3 cells (5 μM, + anandamide (12.5 μM) (Table 4)) turned out to be 50%. Further, the activity at 10 µM with RBL-2H3 cells (setting [7]) is 0%. Further, the inhibition at 5 µM in the data set with RBL-2H3 cells (Rattus norvegicus, RBL-2H3, read-out: 3H-serotonin net release inhibition (%), 5 μM, - anandamide (Table 4)) was 90%. Also, in the data set on RBL-2H3 cells (result in words), the “functional effect following receptor activation (serotonin release)” value is “able to inhibit, in a concentration-dependent way, RBL cells immunogenic activation”.

Consider `C=CCCCCCCCCC(=O)NCCO` [Example 28, N-(2-hydroxyethyl)-10-undecenoylamide], for which the inhibition at 10 µM in data set [1] is 77%. For the same compound, the activity at 100 µM with RBL-2H3 cells (setting [7]) amounted to 100%. Moreover, the solubility in data set [2] (dmso) and in data set [2] (ethanol) was > 10000 µg/mL in each case. In data set [2], the solubility in water result was “scarcely soluble”.

As for `CCCCCC/C=C\CCCCCCCC(=O)NCCO` [Example 19, N-(2-hydroxyethyl)-palmitoleylamide], the inhibition at 10 µM in data set [1] came to 100%. Further, the activity at 100 µM with RBL-2H3 cells (setting [7]) worked out at 100%. Moreover, the solubility in data set [2] (dmso) and in data set [2] (ethanol) was > 10000 µg/mL throughout. Further, the solubility in water result in data set [2] is “scarcely soluble”.

As for `C=C(C)[C@@H]1CCC(C)=C[C@H]1c1c(O)cc(CCCCC)cc1O` [Cannabidiol, cannabidiol, reference compound], the IC50 in data set [1] is > 1000 nM.

As for `CCCCCCCCCCCC(=O)NCCCCO` [Example 18, N-(4-hydroxybutyl)-lauroylamide], in the data set with RBL-2H3 cells (setting [5]), the EC50 was found to be 63 µM. For the same compound, the solubility in data set [2] (dmso) and in data set [2] (ethanol) was > 10000 µg/mL each time. In addition, the solubility in water result in data set [2] is given as “scarcely soluble”.

On to `CCCCCCCCCCCCCCCC(=O)N[C@@H](CO)Cc1ccccc1` [Example 10, N-palmitoyl-[(R)-(+)-2-amino-3-phenyl-1-propanol]], for which the activity at 100 µM with RBL-2H3 cells (setting [7]) is 0%. Moreover, in the data set on RBL-2H3 cells (co-incubation with anandamide, in words), the “effect of anandamide co-incubation on the ability to inhibit serotonin release” value is recorded as “reduces the ability”. For the same compound, in data set [2] (chloroform), the solubility (as a rule, the concentration that dissolves in the medium under given conditions) is > 10000 µg/mL. For the same compound, the solubility in water entry in data set [2] is recorded as “scarcely soluble”.

Turning to `CCCCCCCCCCCCCCCC(=O)NCC(O)c1ccccc1` (stereo not drawn) [Example 3, N-(2-hydroxy-2-phenylethyl)-palmitoylamide], the inhibition at 100 µM in the data set on RBL-2H3 cells (setting [3]) and in the data set on RBL-2H3 cells (setting [4]) was 100% each time. The figures for the EC50 in the data set with RBL-2H3 cells (setting [5]) and with RBL-2H3 cells (setting [6]) were 1.2 µM and 4 µM, respectively. Also, the solubility in data set [2] (dmso) and in data set [2] (ethanol) was > 10000 µg/mL each time. Further, the solubility in water result in data set [2] was “scarcely soluble”.

Regarding `CCCCCCCCCCCC(=O)N[C@@H](C)[C@H](O)c1ccccc1` [Example 8, N-lauroyl-[(1R,2S)-(-)-norephedrine]], the EC50 in the data set with RBL-2H3 cells (setting [5]) was 18 µM. For the same compound, the solubility in data set [2] (dmso) and in data set [2] (ethanol) was > 10000 µg/mL throughout. Also, the solubility in water result in data set [2] is reported as “scarcely soluble”.
